Experimental data published in US9815796B2 (Merck Sharp & Dohme Corp., priority 2013, dated 2017).
Where two headings read alike, the source gives them in different places.

Assays:
[1] = biological target: human PDE2A1 (Homo sapiens (Human), UniProt O00408); test: IMAP FP PDE selectivity panel, human PDE2A1; format: biochemical
Summary of the method: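 IMAP FP format: substrate 50 nM FAM-cAMP plus 1000 nM cGMP, enzyme (insect-cell GST-tagged human PDE2A1) at ~20% conversion, 60 min reaction at room temperature. Apparent inhibition constants calculated from parallel/perpendicular fluorescence with KM 10,000 nM.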

[2] = biological target: Rhesus PDE2A3 (Macaca mulatta, UniProt B3VTJ2); test: PDE2 fluorescence polarization (IMAP FP) inhibition assay, rhesus enzyme; format: biochemical, rhesus macaque
Chain of Rhesus PDE2A3 (B3VTJ2 1-941): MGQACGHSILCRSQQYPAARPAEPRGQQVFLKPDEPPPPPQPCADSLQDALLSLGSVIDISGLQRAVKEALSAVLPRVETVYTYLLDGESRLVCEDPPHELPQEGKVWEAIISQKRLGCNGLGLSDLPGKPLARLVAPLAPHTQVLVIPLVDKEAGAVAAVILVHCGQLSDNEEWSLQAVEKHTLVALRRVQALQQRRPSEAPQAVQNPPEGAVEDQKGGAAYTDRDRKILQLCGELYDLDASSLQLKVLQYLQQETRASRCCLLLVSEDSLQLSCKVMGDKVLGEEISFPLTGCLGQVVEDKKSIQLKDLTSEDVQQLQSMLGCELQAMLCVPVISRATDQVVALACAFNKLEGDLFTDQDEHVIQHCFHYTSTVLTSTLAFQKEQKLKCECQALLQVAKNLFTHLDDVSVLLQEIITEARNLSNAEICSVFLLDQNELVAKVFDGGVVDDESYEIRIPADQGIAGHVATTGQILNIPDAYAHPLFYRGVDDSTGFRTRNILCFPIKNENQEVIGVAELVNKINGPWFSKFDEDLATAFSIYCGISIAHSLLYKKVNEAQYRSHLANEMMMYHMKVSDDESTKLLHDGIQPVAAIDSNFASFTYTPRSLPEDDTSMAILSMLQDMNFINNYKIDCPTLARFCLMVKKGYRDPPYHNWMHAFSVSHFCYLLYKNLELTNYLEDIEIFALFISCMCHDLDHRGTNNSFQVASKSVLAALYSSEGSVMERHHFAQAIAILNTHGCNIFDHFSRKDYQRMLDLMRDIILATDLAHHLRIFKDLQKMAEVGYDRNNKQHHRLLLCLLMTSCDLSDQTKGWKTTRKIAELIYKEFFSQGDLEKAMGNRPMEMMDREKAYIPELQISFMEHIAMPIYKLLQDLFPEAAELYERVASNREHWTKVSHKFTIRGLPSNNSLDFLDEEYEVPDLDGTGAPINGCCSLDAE
Summary of the method: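 IMAP FP (mP from parallel and perpendicular fluorescence against substrate-only control) was read ≥1 h after adding binding reagent. The preceding 60 min room-temperature reaction contained FAM-cAMP (50 nM) and cGMP (1 uM) in pH 7.2 Tris buffer with MgCl2 and DTT. Enzyme was supernatant of sonicated AD293 cells expressing rhesus PDE2A3; compounds were 3-fold titrated, DMSO 1% final.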

[3] = Human PDE2, Lab B, read-out: Human PDE2 Ki (nM) - Lab B
[4] = Rhesus PDE2, Lab B, read-out: Rhesus PDE2 Ki (nM) - Lab B
[5] = Human PDE2, Lab A, read-out: Human PDE2 Ki (nM) - Lab A
[6] = Rhesus PDE2, Lab A, read-out: Rhesus PDE2 Ki (nM) - Lab A

Chain of human PDE2A1 (O00408 other isoform, or with tags, fused parts or gaps): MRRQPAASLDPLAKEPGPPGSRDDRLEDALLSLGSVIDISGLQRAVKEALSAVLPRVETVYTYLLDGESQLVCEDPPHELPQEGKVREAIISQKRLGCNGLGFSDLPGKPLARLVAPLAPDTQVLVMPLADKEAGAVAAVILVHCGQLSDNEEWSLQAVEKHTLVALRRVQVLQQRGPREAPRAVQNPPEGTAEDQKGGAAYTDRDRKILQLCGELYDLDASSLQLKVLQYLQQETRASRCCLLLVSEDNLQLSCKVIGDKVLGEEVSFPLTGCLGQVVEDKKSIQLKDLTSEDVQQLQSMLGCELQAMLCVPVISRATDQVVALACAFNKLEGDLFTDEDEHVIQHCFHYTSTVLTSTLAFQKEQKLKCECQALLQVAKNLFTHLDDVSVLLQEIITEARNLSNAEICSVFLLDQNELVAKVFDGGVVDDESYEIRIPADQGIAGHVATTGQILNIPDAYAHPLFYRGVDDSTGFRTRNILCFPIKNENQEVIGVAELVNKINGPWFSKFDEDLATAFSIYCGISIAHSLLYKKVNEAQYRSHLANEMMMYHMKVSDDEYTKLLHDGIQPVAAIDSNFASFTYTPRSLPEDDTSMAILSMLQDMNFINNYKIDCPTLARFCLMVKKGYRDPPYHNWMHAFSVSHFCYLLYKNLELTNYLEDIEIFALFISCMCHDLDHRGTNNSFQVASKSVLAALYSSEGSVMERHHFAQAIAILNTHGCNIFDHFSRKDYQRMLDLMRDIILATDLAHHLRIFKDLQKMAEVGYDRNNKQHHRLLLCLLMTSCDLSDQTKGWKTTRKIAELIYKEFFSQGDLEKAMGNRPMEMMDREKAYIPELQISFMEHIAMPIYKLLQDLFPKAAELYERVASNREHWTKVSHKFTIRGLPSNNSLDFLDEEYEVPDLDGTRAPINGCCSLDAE

| SMILES | Ki [1, 3] | Ki [2, 4] | Ki [1, 5] | Ki [2, 6] |
| --- | --- | --- | --- | --- |
| COc1ccc(C(C)(C)c2nc(C(=O)N[C@@H](c3ccc(OC(F)(F)F)c(F)c3)C3CC3)cc(=O)[nH]2)cc1 [Example 498, N-{(R)-cyclopropyl[3-fluoro-4-(trifluoromethoxy)phenyl]methyl}-2-[1-(4-methoxyphenyl)-1-methylethyl]-6-oxo-1,6-dihydropyrimidine-4-carboxamide] | 49 nM | 65 nM | – | – |
| C[C@@H](NC(=O)c1cc(=O)[nH]c(-c2ccccc2)n1)c1ccc(SC(F)(F)F)cc1 [Example 142, 6-Oxo-2-phenyl-N-[(1R)-1-{4-[(trifluoromethyl)sulfanyl]phenyl}ethyl]-1,6-dihydropyrimidine-4-carboxamide] | – | – | 1.5 nM | 1.4 nM |
| O=C(NC1(c2ccc(C(F)(F)F)c(F)c2)CC1)c1cc(=O)[nH]c(-c2ccccc2)n1 [Example 145, N-{1-[3-fluoro-4-(trifluoromethyl)phenyl]cyclopropyl}-6-oxo-2-phenyl-1,6-dihydropyrimidine-4-carboxamide] | – | – | 2.3 nM | 2.9 nM |
| O=C(N[C@@H](c1ccc(S(F)(F)(F)(F)F)cc1)C1CC1)c1cc(=O)[nH]c(-c2ncccn2)n1 [Example 412, N-{(R)-cyclopropyl[4-(pentafluoro-λ^6-sulfanyl)phenyl]methyl}-6-oxo-1,6-dihydro-2,2′-bipyrimidine-4-carboxamide] | 10 nM | 9.9 nM | – | – |
| CC(C)(C)[C@@H](NC(=O)c1cc(=O)[nH]c(C2CC2)n1)c1ccc(C2CC2)c(F)c1 [Example 435, 2-cyclopropyl-N-[(1R)-1-(4-cyclopropyl-3-fluorophenyl)-2,2-dimethylpropyl]-6-oxo-1,6-dihydropyrimidine-4-carboxamide] | 0.78 nM | 1.1 nM | – | – |
| COc1ccc(Cc2nc(C(=O)N[C@@H](c3ccc(OC(F)(F)F)c(F)c3)C(C)C)cc(=O)[nH]2)cc1 [Example 473, N-{(1R)-1-[3-fluoro-4-(trifluoromethoxy)phenyl]-2-methylpropyl}-2-(4-methoxybenzyl)-6-oxo-1,6-dihydropyrimidine-4-carboxamide] | 0.86 nM | 1.1 nM | – | – |
| C[C@@H](NC(=O)c1cc(=O)[nH]c(-c2ncccn2)n1)c1ccc(OC(F)(F)F)cc1 [Example 283, 6-oxo-N-{(1R)-1-[4-(trifluoromethoxy)phenyl]ethyl}-1,6-dihydro-2,2′-bipyrimidine-4-carboxamide] | – | – | 6 nM | 8.7 nM |
| Cc1nc(C(=O)N[C@H](C)c2ccc3ccccc3c2)cc(=O)[nH]1 [Example 16, 2-methyl-N-[(1R)-1-naphthalen-2-ylethyl]-6-oxo-1,6-dihydropyrimidine-4-carboxamide] | – | – | 67 nM | 74 nM |
| Cc1nc(C(=O)N[C@H](C)c2ccc(OC(F)(F)F)cc2)cc(=O)[nH]1 [Example 9, 2-methyl-6-oxo-N-{(1R)-1-[4-(trifluoromethoxy)phenyl]ethyl}-1,6-dihydropyrimidine-4-carboxamide] | – | – | 16 nM | 21 nM |
| Cc1nc(C(=O)NC(C(=O)O)c2ccc(C(F)(F)F)cc2)cc(=O)[nH]1 (single isomer, unassigned) [Example 328] | – | – | 38 nM | 33 nM |
| O=C(N[C@@H](c1ccc(C(F)(F)F)cc1)C1CC1)c1cc(=O)[nH]c(-c2ccccc2)n1 [Example 177, N-{(R)-cyclopropyl[4-(trifluoromethyl)phenyl]methyl}-6-oxo-2-phenyl-1,6-dihydropyrimidine-4-carboxamide] | – | – | 3.1 nM | 3.8 nM |
| Cc1nc(C(=O)N[C@@H](c2ccc(C(F)(F)F)cc2)[C@@H](C)O)cc(=O)[nH]1 [Example 65, N-((1S,2R)-2-hydroxy-1-(4-(trifluoromethyl)phenyl)propyl)-2-methyl-6-oxo-1,6-dihydropyrimidine-4-carboxamide] | – | – | 18 nM | 38 nM |
| O=C(NCc1ccc(C(F)(F)F)cc1)c1cc(=O)[nH]c(-c2ccccc2)n1 [Example 371, 6-oxo-2-phenyl-N-[4-(trifluoromethyl)benzyl]-1,6-dihydropyrimidine-4-carboxamide] | 117 nM | 150 nM | – | 68 nM |
| Cc1nc(C(=O)NC(C)c2ccc(-c3ccccc3)cc2)cc(=O)[nH]1 (single isomer, unassigned) [Example 307, (R)- or (S)-N-(1-biphenyl-4-ylethyl)-2-methyl-6-oxo-1,6-dihydropyrimidine-4-carboxamide] | – | – | 16 nM | 17 nM |
| CC(NC(=O)c1cc(=O)[nH]c(-c2ccccc2)n1)c1ccc(-n2cccn2)cc1 (stereo not shown) [Example 350, 6-oxo-2-phenyl-N-{1-[4-(1H-pyrazol-1-yl)phenyl]ethyl}-1,6-dihydropyrimidine-4-carboxamide] | 39 nM | – | – | 21 nM |
| C[C@@H](NC(=O)c1cc(=O)[nH]c(-c2cccc(F)c2)n1)c1ccc(C(F)(F)F)cc1 [Example 138, 2-(3-fluorophenyl)-6-oxo-N-{(1R)-1-[4-(trifluoromethyl)phenyl]ethyl}-1,6-dihydropyrimidine-4-carboxamide] | – | – | 69 nM | 76 nM |
| C[C@@H](NC(=O)c1cc(=O)[nH]c(-c2ccccc2)n1)c1cc(F)c(C(F)(F)F)c(F)c1 [Example 184, N-{(1R)-1-[3,5-difluoro-4-(trifluoromethyl)phenyl]ethyl}-6-oxo-2-phenyl-1,6-dihydropyrimidine-4-carboxamide] | – | – | 20 nM | 20 nM |
| COc1ccc(C(C)(C)c2nc(C(=O)N[C@@H](c3ccc(SC(F)(F)F)cc3)C(C)C)cc(=O)[nH]2)cc1 [Example 490, 2-[1-(4-methoxyphenyl)-1-methylethyl]-N-[(1R)-2-methyl-1-{4-[(trifluoromethyl)sulfanyl]phenyl}propyl]-6-oxo-1,6-dihydropyrimidine-4-carboxamide] | 31 nM | 43 nM | – | – |
| Cc1cc(C(F)(F)F)ccc1C(C)NC(=O)c1cc(=O)[nH]c(-c2ccccc2)n1 (stereo not shown) [Example 173, N-{1-[2-methyl-4-(trifluoromethyl)phenyl]ethyl}-6-oxo-2-phenyl-1,6-dihydropyrimidine-4-carboxamide] | – | – | 76 nM | 90 nM |
| COc1ccc(Cc2nc(C(=O)N[C@@H](c3ccc(C(F)(F)F)c(F)c3)C(C)(C)C)cc(=O)[nH]2)cc1F [Example 508, 2-(3-fluoro-4-methoxybenzyl)-N-{(1R)-1-[3-fluoro-4-(trifluoromethyl)phenyl]-2,2-dimethylpropyl}-6-oxo-1,6-dihydropyrimidine-4-carboxamide] | 0.8 nM | 0.77 nM | – | – |
| O=C(NC1(c2ccc(C(F)(F)F)cc2)CCC1)c1cc(=O)[nH]c(C2CC2)n1 [Example 143, 2-cyclopropyl-6-oxo-N-{1-[4-(trifluoromethyl)phenyl]cyclobutyl}-1,6-dihydropyrimidine-4-carboxamide] | – | – | 11 nM | 21 nM |
| CC(C)[C@@H](NC(=O)c1cc(=O)[nH]c(-c2ccccc2)n1)c1ccc(SC(F)(F)F)cc1 [Example 419, N-[(1R)-2-methyl-1-{4-[(trifluoromethyl)sulfanyl]phenyl}pro-pyl]-6-oxo-2-phenyl-1,6-dihydropyrimidine-4-carboxamide] | 2.9 nM | 3.3 nM | – | – |
| COc1ccc(Cc2nc(C(=O)N[C@@H](c3ccc(SC(F)(F)F)cc3)C(C)C)cc(=O)[nH]2)cc1F [Example 511, 2-(3-fluoro-4-methoxybenzyl)-N-[(1R)-2-methyl-1-{4-[(trifluoromethyl)sulfanyl]phenyl}propyl]-6-oxo-1,6-dihydropyrimidine-4-carboxamide] | 1.4 nM | 1.2 nM | – | – |
| COCc1nc(C(=O)N[C@@H](c2ccc(C(F)(F)F)cc2)C2CC2)cc(=O)[nH]1 [Example 118, N-{(R)-cyclopropyl[4-(trifluoromethyl)phenyl]methyl}-2-(methoxymethyl)-6-oxo-1,6-dihydropyrimidine-4-carboxamide] | – | – | 18 nM | 76 nM |
| C[C@@H](NC(=O)c1cc(=O)[nH]c(-c2ncccn2)n1)c1ccc(OC(F)(F)F)cc1F [Example 101, N-{(1R)-1-[2-fluoro-4-(trifluoromethoxy)phenyl]ethyl}-6-oxo-1,6-dihydro-2,2′-bipyrimidine-4-carboxamide] | 33 nM | 28 nM | ~8.9 nM | 28 nM |
| COc1ccc(C(C)(C)c2nc(C(=O)N[C@@H](c3ccc(SC(F)(F)F)cc3)C3CC3)cc(=O)[nH]2)cc1 [Example 500, N-[(R)-cyclopropyl{4-[(trifluoromethyl)sulfanyl]phenyl}methyl]-2-[1-(4-methoxyphenyl)-1-methylethyl]-6-oxo-1,6-dihydropyrimidine-4-carboxamide] | 74 nM | 79 nM | – | – |
| C[C@@H](NC(=O)c1cc(=O)[nH]cn1)c1ccc(C(F)(F)F)cc1 [Example 8, (R)-6-oxo-N-(1-(4-(trifluoromethyl)phenyl)ethyl)-1,6-dihydropyrimidine-4-carboxamide] | – | – | 334 nM | 410 nM |
| Cc1nc(C(=O)NC(C)c2ccc(C(F)(F)F)cn2)cc(=O)[nH]1 (stereo not shown) [Example 17, 2-methyl-6-oxo-N-{1-[5-(trifluoromethyl)pyridin-2-yl]ethyl}-1,6-dihydropyrimidine-4-carboxamide] | – | – | 917 nM | 1160 nM |
| COc1cc(C(F)(F)F)ccc1[C@@H](C)NC(=O)c1cc(=O)[nH]c(C2CC2)n1 [Example 219, 2-cyclopropyl-N-{(1R)-1-[2-methoxy-4-(trifluoromethyl)phenyl]ethyl}-6-oxo-1,6-dihydropyrimidine-4-carboxamide] | – | – | 31 nM | 43 nM |
